Results reported in patent US12582626B2, “Methods and compositions for treating cancer” (The Wistar Institute of Anatomy and Biology, priority 2016, dated 2026).

Columns and labels:
[1] = tested on: CD8+ T cells; assay: Extracellular flux analysis (OCR, ECAR) of stimulated CD8+ T cells; format: cell-based, mouse; conditions: for Basal OCR: OS 100 μM or AmA 20 μM, Glu or Gal media, short-term hypoxia
Description: OCR and ECAR for CD8^+ T cells stimulated under different conditions were measured with XF24 and XF96 Extracellular Flux Analyzers (Seahorse Bioscience) following the manufacturer's instructions. Hypoxia samples were prepared in a hypoxia chamber under 1% O2. Dead cells were removed by dead cell removal kit using MACS and live cells were pre-incubated with 100 μM cobalt chloride before being removed from the hypoxia chamber and entered into the Seahorse analyzer. In experiments to determine the contribution of fatty acid oxidation (FAO) to OCR, 200 μM ETO was added 15 minutes before the Seahorse analysis. Briefly after repeated measures of basal respiration and lactate production, 1 μM OM was added to measure ATP leakage by OCR and glycolytic capacity by ECAR. 1.5 μM FCCP was then added to measure maximal respiration by OCR followed by addition of 100 nM Rotenone and 1 μM Antimycin A (AmA) to determine spare respiratory capacity by OCR and then 100 mM 2-DG to determine glycolytic reserve by ECAR.

[2] = tested on: activated CD8+ T cells; assay: In vitro stimulation of CD8+ T cells and drug treatments (flow cytometry, intracellular cytokine staining); format: cell-based, mouse
Description: Enriched CD8+ T cells were activated for 4 days in 6-well plates pre-coated with antibodies to CD3 (5 μg/ml) and CD28 (5 μg/mL) (BD Bioscience). For some samples, cells were transferred for the last 16 hours to a hypoxia chamber. To study the impact of hypoxia on relatively resting CD8+ T cells, enriched CD8+ T cells were stimulated for 48 hours under normoxia. Cells were then removed from the plates, washed and replated in fresh medium with 100 U/ml human IL-2 for 96 hours, followed by culture in normoxia or hypoxia with IL-2 for another 36 hours before analysis. Cells were cultured in Roswell Park Memorial Institute (RPMI) medium without Glu (Life Technologies) supplemented with Glu (10 mM) or Gal (10 mM), 10% dialyzed FBS (Life Technologies), 20 mM HEPES, 2 mM Glutamax, 1 mM sodium pyruvate, 0.05 mM 2-mercaptoethanol and 1% penicillin-streptomycin. Hypoxia experiments were performed in a Thermo Napco series 8000WJ CO2 incubator equipped with nitrogen tank for O2 replacement. O2 level was kept at 1% during CD8+ T cells hypoxia culture for time periods indicated in each assay. In all assays cell viability was assessed before staining. […] Drugs and corresponding vehicle controls were added as follows: 2-deoxy-D-glucose (2-DG, 2 mM, Sigma) or Fenofibrate (FF, 50 μM, Sigma) for the entire culture period; Etomoxir (Eto, 200 μM, Sigma) for the last 48 hours. DMSO concentrations were kept below 0.2% for all culture conditions.
CD8^+ T cells from spleens of naive C57Bl/6 mice were purified by negative selection using magnetic beads (MACS, STEMCELL Technologies). Enriched CD8^+ T cells were activated for 4 days in 6-well plates pre-coated with antibodies to CD3 (5 μg/ml) and CD28 (5 μg/mL) (BD Bioscience). For some samples, cells were transferred for the last 16 hours to a hypoxia chamber. To study the impact of hypoxia on resting CD8^+ T cells, purified enriched CD8^+ T cells were stimulated for 48 hours under normoxia. Cells were then washed off the plates and replated in fresh medium with 100 U/ml human IL-2 for 96 hours, followed by culture in normoxia or hypoxia with IL-2 for another 36 hours before analysis. Cells were cultured in Roswell Park Memorial Institute (RPMI) medium without Glu (Life Technologies) supplemented with Glu (10 mM) or Gal (10 mM), 10% dialyzed FBS (Life Technologies), 20 mM HEPES, 2 mM Glutamax, 1 mM sodium pyruvate, 0.05 mM 2-mercaptoethanol and 1% penicillin-streptomycin. Hypoxia experiments were performed in a Thermo Napco series 8000WJ CO2 incubator equipped with nitrogen tank for O2 replacement. O2 level was kept at 1% during CD8^+ T cells hypoxia culture for time periods indicated in each assay. Drugs and corresponding vehicle controls were added as follows: 2-deoxy-D-glucose (2-DG, 2 mM, Sigma) or Fenofibrate (FF, 50 μM, Sigma) for the entire culture period; Etomoxir (Eto, 200 μM, Sigma), Amidepsine A (AmA, 20 μM, Santa Cruz), or Orlistat (OS, 100 μM, Sigma) for the last 48 hours. DMSO concentrations were kept below 0.2% for all culture conditions.
For mitochondrial metabolic markers analysis, cells were stained with Mitosox Red (5 μM, MROS) and DioC6 (40 nM, MMP) (Life Technologies) at 37° C. for 30 minutes under either normoxia or hypoxia (for in vitro samples cultured prior to staining under hypoxia). For fatty acid uptake experiments, cells stimulated under different conditions in vitro or isolated from spleen and tumors of mice bearing 2 weeks or 1 month-old tumors were immediately incubated with 1 μM BODIPY FL C16 (Life tech) for 30 mins at 37° C. Cells were washed twice with cold PBS before surface staining. For Cpt1a staining, cells were stained for surface markers first followed by permeabilization with transcription factor buffer set (BD Pharmingen, San Diego, CA). Cells were stained with anti-Cpt1a antibody or mouse IgG2b isotype control antibody (abcam) at 5 μg/ml in 1× permwash for 45 mins at 4° C. […]

[3] = tested on: vaccine-induced CD8+ T cells; assay: FF treatment of vaccinated donor mice, splenic CD8+ T cells analysed before transfer; format: in vivo, mouse; conditions: samples incubated with Eto
Description: For in vivo treatment, fenofibrate (FF; at 100 mg/kg/day, Sigma) was first diluted in dimethylsulfoxide (DMSO) and then further diluted in PBS and given by oral gavage daily for 3 weeks. Control mice received diluent at the same volume. For adoptive transfer experiments, 1×10^7 in vitro activated CD8^+ T cells transduced with lentivectors or splenocytes from vaccinated mice treated with drugs and containing 5×10^4 Trp-1455 tetramer^+CD8^+ T cells per dose were injected intravenously into recipient mice. For FF/control treated splenocytes or wild type/PPAR-α KO splenocytes co-transfer experiments, splenocytes containing 10^5 Trp-1455 tetramer^+CD8^+ T cells from each group were mixed and transferred into CD90.1^+ recipient mice intravenously.
To assess how increased FA catabolism affects CD8+TIL functions, we vaccinated CD90.2+ mice congenic for CD45, and treated them for 3 weeks daily with FF (CD45.1 mice) or diluent (CD45.2 mice). Splenocytes from these mice were mixed at a 1:1 ratio of Trp-1-specific CD8+ T cells from the 2 donors and transferred into CD90.1+ recipient mice, which had been challenged with tumor cells and vaccinated 3 days later. Cells were transferred 2 days after vaccination (FIG. 6A).

## O=CC[C@@H](O)[C@H](O)[C@H](O)CO [2-DG, 2-deoxy-D-glucose]
[1]; Glu medium with 2-DG 2 mM
  O2 consumption rate (OCR): decreases
  OCR/ECAR ratio: augments
  extracellular acidification rate (ECAR): declines
[2]; 2-DG compared to cells grown with Glu
  PD-1 expression: more

## COc1cc(C)c(C(=O)Oc2cc(C)c(C(=O)Oc3cc(C)c(C(=O)NC(C)C(=O)O)c(O)c3)c(O)c2)c(OC)c1 (stereo not shown) [AmA, Amidepsine A]
[1]
  Basal OCR: decreases
[2]; Gal media and hypoxia
  functions of T cells: decrease functions
[2]; under hypoxia, AmA, Gal medium
  PD-1 expression: decreases

## CCOC(=O)[C@@]1(CCCCCCOc2ccc(Cl)cc2)CO1 [Eto, etomoxir]
[1]; Eto 200 μM, CD8+ T cells stimulated in Glu or Gal media
  OCR: decreases
[2]; cultured with limited access to Glu and O2
  functions and polyfunctionality of CD8+ T cells: decreases
[2]; under hypoxia, FF 50 μM or Eto 200 μM
  PD-1 expression: decreases
[3]
  FF-enhanced OCR of splenocytes: blocked

## CCCCCCCCCCC[C@@H](C[C@@H]1OC(=O)[C@H]1CCCCCC)OC(=O)[C@H](CC(C)C)NC=O [OS, Orlistat]
[1]
  Basal OCR: decreases
[2]; under hypoxia, OS, regardless of other culture conditions
  PD-1 expression: decreases
